In patent publication US11365201B2, “Chlorotonil derivatives” (HELMHOLTZ-ZENTRUM FÜR INFEKTIONSFORSCHUNG GMBH, priority 2017, dated 2022):
Values after ≈ are worked out from the molar mass of the structure shown. Where two headings read alike, the source gives them in different places.

How the values were obtained:
[1] = system: L-929 (murine fibroblasts); assay: Cytotoxicity assay (MTT, 5 d); type: cell-based; settings: Mus musculus, L929, 120 h
Experimental: Cytotoxicity Assay The murine fibroblast cell line L-929 was obtained from the German Collection of Microorganisms and Cell Cultures (DSMZ) and maintained under conditions recommended by the depositor. Cells were seeded at 6×10^3 cells per well of sterile 96-well plates in 180 μL complete medium and treated with the compounds in serial dilution after 2 h of equilibration. After 5 d, viability was assessed by the MTT method. After 1.5 h incubation with 0.5 mg/mL MTT reagent, cells were washed with PBS and 100 μL of 2-propanol/10 N HCl (250:1) was added. The absorbance at 570 nm was determined on a microplate reader and cell viability was expressed as percentage relative to the respective solvent control. Half-inhibitory concentrations (IC50) were determined by sigmoidal curve fitting.

[2] = Determination of water solubility, Method 1 (suspension in tap water, weighing); type: physicochemical; settings: thermodynamic from solid, room temperature, 18 h stirring, triplicates
Experimental: (§1) Determination of Water Solubility
10 mg of compound was suspended in 1 L of tap water and the solution was stirred at room temperature for 18 h. Upon completion, solution was sonicated for another hour, centrifuged and the supernatant was separated from the precipitate. Both aliquots were lyophilized, and weighed. This procedure was performed in triplicates.

C. glutamicum DSM-20300 = assay: Antimicrobial assay, MIC by microbroth dilution; type: cell-based; settings: Corynebacterium glutamicum, DSM20300; 16 h, cation-adjusted Muller-Hinton broth
Experimental: (§2) Bacterial strains used in susceptibility assays (minimum inhibitory concentrations, MIC) were either part of our internal strain collection or were purchased form the German Collection of Microorganisms and Cell Cultures (DSMZ). All compounds were prepared as DMSO stocks and MIC values were determined in standard microbroth dilution assays. Overnight cultures of bacteria were diluted in cation-adjusted Muller-Hinton broth (BBL™, BD) and were adjusted to approximately 10^5 cfu/mL. […] Bacteria were grown in the presence of the derivatives in serial dilution for 16 h at their optimal growth temperature. MIC values were determined according to CLSI guidelines (antibiotic concentration at which no visible bacterial growth is observed).

B. subtilis DSM-10 = assay: Antimicrobial assay, MIC by microbroth dilution; type: cell-based; settings: Bacillus subtilis, DSM10; 16 h, cation-adjusted Muller-Hinton broth
Experimental: as §2

S. aureus Newman = assay: Antimicrobial assay, MIC by microbroth dilution; type: cell-based; settings: Staphylococcus aureus, NEWMAN; 16 h, cation-adjusted Muller-Hinton broth
Experimental: as §2

[3] = system: P. falciparum 3D7 (sensitive strain); assay: Antiplasmodial in vitro drug sensitivity assay (HRP2-ELISA); type: cell-based; settings: Plasmodium falciparum, P. falciparum 3D7 (sensitive strain), read-out: IC50 against P. falciparum 3D7
Experimental: (§3) Two laboratory strains of P. falciparum, the chloroquine sensitive 3D7 and the multi-resistant Dd2 were kept in continuous culture as previously described (Trager and Jensen 1976). In brief, parasites were kept in complete culture medium (RPMI 1640, 25 mM HEPES, 2 mM L-glutamine, 50 μg/ml gentamicin and 0.5% w/v AlbuMAX) at 37° C., 5% CO2 and 5% oxygen at 5% hematocrit with daily change of medium. Synchronization was performed with sorbitol twice a week (Lambros and Vanderberg 1979).
(§4) In Vitro Drug Sensitivity Assay
(§5) All compounds were dissolved in DMSO at stock dilutions between 25 and 100 mM; the reference drug chloroquine diphosphate (MW: 515.86) was diluted in distilled water and DMSO, respectively. […] Antiplasmodial activity of the different compounds was tested in a drug sensitivity assay against the two laboratory strains using the histidine-rich protein 2 (HRP2) assay as described previously (Noedl 2005). In brief: 96 well plates were pre-coated with the different compounds in a threefold dilution before ring stage parasites were added in complete culture medium at a hematocrit of 1.5% and a parasitemia of 0.05% in a total volume of 225 μl per well. After three days of incubation plates were frozen until analyzed by HRP2-ELISA. All compounds were evaluated in duplicate in at least two independent experiments.

[4] = system: P. falciparum Dd2 (resistant strain); assay: as above; type: cell-based; settings: Plasmodium falciparum, P. falciparum Dd2 (resistant strain), read-out: IC50 against P. falciparum Dd2
Experimental: as §3, §4, §5

[5] = Determination of water solubility, Method 2 (HPLC-MS standard curve, saturated solution in water); type: physicochemical; settings: thermodynamic from solid; saturated solution in water, HPLC-MS standard curve
Experimental: as §1
A standard curve with 10 calibration points of the compound of interest is plotted using HPLC-MS and serial dilution. The dilutions and stock solutions were prepared in THF as a solvent. Following the measurements, a saturated solution in water of the compound in study was also measured. Upon plotting the standard curve using the peak areas of the MS peaks, the water samples were plotted along the curve and the solubility was then calculated.

E. coli TolC (+PMBN) = assay: Antimicrobial assay, MIC by microbroth dilution with PMBN; type: cell-based; settings: 16 h, 3 μg/mL polymyxin B nonapeptide (PMBN) added
Experimental: Bacterial strains used in susceptibility assays (minimum inhibitory concentrations, MIC) were either part of our internal strain collection or were purchased form the German Collection of Microorganisms and Cell Cultures (DSMZ). All compounds were prepared as DMSO stocks and MIC values were determined in standard microbroth dilution assays. Overnight cultures of bacteria were diluted in cation-adjusted Muller-Hinton broth (BBL™, BD) and were adjusted to approximately 10^5 cfu/mL. For the E. coli culture, 3 μg/mL of polymyxin B nonapeptide (PMBN) was added to increase permeability of the outer membrane as chlorotonils were previously shown to not penetrate into Gram-negative cells. Bacteria were grown in the presence of the derivatives in serial dilution for 16 h at their optimal growth temperature. MIC values were determined according to CLSI guidelines (antibiotic concentration at which no visible bacterial growth is observed).

[6] = system: zebrafish larvae of the TLF wild type line; assay: Zebrafish embryo toxicity, maximum tolerated concentration (MTC), TLF line; type: in vivo; settings: at five dpf, incubation started at one dpf
Experimental: (§6) Zebrafish Embryo Toxicity
(§7) The maximum tolerated concentration (MTC) was determined on zebrafish larvae of the AB wildtype line and the TLF wild type line. Larvae were placed into a 96-well plate (one larva per well) and incubated in a solution at different concentrations (100, 50, 25, 10, 1 μM) of ChA, ChA-Epo2, ChB or ChB-Epo at two days post fertilization (dpf) for AB and in a solution at different concentrations of ChA (100, 50 μM) ChA-Epo2 (25, 10, 1 μM), ChB (100, 50 μM) or ChB-Epo (100, 50, 25 μM) at one dpf for TLF. Five zebrafish larvae were used per condition. The incubated embryos were kept in compound solutions at 28° C. until five dpf and monitored daily by microscopy. The final MTC result was recorded at five dpf. Compound solutions were prepared in the larvae medium Danieau's. Additionally a solution of 0.5% DMSO in Danieau's was used as vehicle control and Danieau's alone as a negative control.

[7] = system: zebrafish larvae of the AB wildtype line; assay: Zebrafish embryo toxicity, maximum tolerated concentration (MTC), AB line; type: in vivo; settings: AB line, at five dpf, incubation started at two dpf
Experimental: as §6, §7

Gram-positive bacteria = assay: Antimicrobial assay, MIC against a range of Gram-positive bacteria (Table 5); type: cell-based; settings: read-out: MIC
Experimental: as §2

SMILES	IC50 [1]	solubility at 18 h [2]	MIC (C. glutamicum DSM-20300)	MIC (B. subtilis DSM-10)	MIC (S. aureus Newman)	IC50 [3]	IC50 [4]	solubility [5]	MIC E. coli TolC (+PMBN) (E. coli TolC (+PMBN))	further results
C[C@@H]1C(=O)O[C@@H](C)/C=C/C=C\[C@@H](C)[C@@H]2C=C[C@@H]3C[C@@](C)(O)[C@H](Cl)[C@@H](C)[C@H]3[C@@H]2C(=O)C(Cl)(Cl)C1=O [ChA-Epo2-Cl]	4200 nM	280 µg/mL (≈ 526 µM)	0.4 µg/mL (≈ 0.752 µM)	0.1 µg/mL (≈ 0.188 µM)	0.05 µg/mL (≈ 0.094 µM)	0.0387 µM	0.0459 µM	320 µg/mL (≈ 602 µM)	0.8 µg/mL	–
C[C@@H]1C(=O)O[C@@H](C)/C=C/C=C\[C@@H](C)[C@@H]2C=C[C@@H]3C[C@@](C)(O)[C@H](O[N+](=O)[O-])[C@@H](C)[C@H]3[C@@H]2C(=O)C(Cl)(Cl)C1=O [ChA-Epo2-ONO2]	–	310 µg/mL (≈ 555 µM)	0.1 µg/mL (≈ 0.179 µM)	0.025 µg/mL (≈ 0.0448 µM)	0.025 µg/mL (≈ 0.0448 µM)	0.00092 µM	0.0022 µM	380 µg/mL (≈ 680 µM)	0.1 µg/mL	–
CC(C)CCO[C@@H]1[C@@H](C)[C@H]2[C@@H]3C(=O)C(Cl)(Cl)C(=O)[C@H](C)C(=O)O[C@@H](C)/C=C/C=C\[C@@H](C)[C@@H]3C=C[C@@H]2C[C@@]1(C)O [ChA-Epo2-Oisoamyl]	44700 nM	–	3.2 µg/mL (≈ 5.48 µM)	0.8 µg/mL (≈ 1.37 µM)	1.6 µg/mL (≈ 2.74 µM)	–	–	–	0.8 µg/mL	IC50 ([3]; μM): > 11 µM; IC50 ([4]; μM): > 11 µM
C[C@@H]1C(=O)O[C@@H](C)/C=C/C=C\[C@@H](C)[C@@H]2C=C[C@@H]3C[C@@]4(C)O[C@H]4[C@@H](C)[C@H]3[C@@H]2C(=O)C(Cl)(Cl)C1=O [ChA-Epo2]	2100 nM	14 µg/mL (≈ 28.3 µM)	0.05 µg/mL (≈ 0.101 µM)	0.025 µg/mL (≈ 0.0505 µM)	0.025 µg/mL (≈ 0.0505 µM)	0.0513 µM	0.0871 µM	10.3 µg/mL (≈ 20.8 µM)	0.1 µg/mL	Observations noted on fish larvae ([6]; 10 μM): 4 delayed in development; Observations noted on fish larvae ([6]; 25 μM): 1 died, 4 delayed in; MTC (maximum tolerated concentration) [6]: 1 µM; Observations noted on fish larvae ([7]; 10 μM): died; Observations noted on fish larvae ([7]; 25 μM): died; Observations noted on fish larvae ([7]; 50 μM): died; Observations noted on fish larvae ([7]; 100 μM): died; MTC (maximum tolerated concentration) [7]: 1 µM; MIC (Gram-positive bacteria; Enterococcus faecalis, E. faecalis 20478): 0.8 µg/mL (≈ 1.61 µM); MIC (Gram-positive bacteria; Enterococcus faecalis, E. faecalis 29212): 1.6 µg/mL (≈ 3.23 µM); MIC (Gram-positive bacteria; Enterococcus faecium, E. faecium 20477): 3.2 µg/mL (≈ 6.46 µM); MIC (Gram-positive bacteria; Enterococcus faecium, VRE, E. faecium 17050 (VRE)): 0.4 µg/mL (≈ 0.807 µM); MIC (Gram-positive bacteria; Micrococcus luteus, M. luteus): 0.025 µg/mL (≈ 0.0505 µM); MIC (Gram-positive bacteria; Mycolicibacterium smegmatis, M. smegmatis): 0.003 µg/mL (≈ 0.00606 µM); MIC (Gram-positive bacteria; Priestia megaterium, B. megaterium): 0.00125 µg/mL (≈ 0.00252 µM); MIC (Gram-positive bacteria; Staphylococcus epidermidis, S. epidermidis 28765): 0.2 µg/mL (≈ 0.404 µM); MIC (Gram-positive bacteria; Streptococcus pneumoniae, PRSP, S. pneumoniae 11865 (PRSP)): 8 µg/mL (≈ 16.1 µM); MIC (Gram-positive bacteria; Streptococcus pneumoniae, S. pneumoniae 20566): 0.2 µg/mL (≈ 0.404 µM)
